According to patent publication US20070254881A1, “Pyrazole Derivative” (DAIICHI PHARMACEUTICAL CO., LTD., priority 2004, published 2007):
pIC50: −log10 of the molar value.

Columns and labels:
[1] = test system: collagen-induced platelet aggregation; assay: Platelet aggregation suppressing effect (collagen-induced aggregation in platelet rich plasma); format: cell-based; conditions: human PRP, 37° C., collagen as inducer, read-out: Inhibitory effect of collagen-induced platelet aggregation IC50
Description: Human blood was collected using 3.13% sodium citrate in a volume 1/10 of the blood volume, as an anticoagulant. The collected blood was centrifuged at 180 g for 10 minutes to separate platelet rich plasma (PRP) from the blood. After collecting the PRP fraction in the upper layer, the lower layer was further centrifuged at 1600 g for 10 minutes to fractionate platelet poor plasma (PPP) in the upper layer. One μl of a solution of a compound obtained in the Examples was added to 200 μl of PRP, and the mixture was allowed to stand at 37° C. for 2 minutes. Subsequently, 2 μl of collagen was added thereto, so as to induce platelet aggregation. The platelet aggregation rate was measured using PAM-12C(SSR Engineering, Inc.).

Cyclooxygenase-1 (COX-1) = target: T1, Cyclooxygenase-1 (COX-1) (Ovis aries, UniProt P05979); assay: COX-1 inhibition, COX Inhibitor Screening Assay Kit (PGF2α production, ELISA); format: biochemical; conditions: compound 50 μM
T1 construct: purchased Cayman Chemical Company 560101
T1 sequence (P05979 25-600): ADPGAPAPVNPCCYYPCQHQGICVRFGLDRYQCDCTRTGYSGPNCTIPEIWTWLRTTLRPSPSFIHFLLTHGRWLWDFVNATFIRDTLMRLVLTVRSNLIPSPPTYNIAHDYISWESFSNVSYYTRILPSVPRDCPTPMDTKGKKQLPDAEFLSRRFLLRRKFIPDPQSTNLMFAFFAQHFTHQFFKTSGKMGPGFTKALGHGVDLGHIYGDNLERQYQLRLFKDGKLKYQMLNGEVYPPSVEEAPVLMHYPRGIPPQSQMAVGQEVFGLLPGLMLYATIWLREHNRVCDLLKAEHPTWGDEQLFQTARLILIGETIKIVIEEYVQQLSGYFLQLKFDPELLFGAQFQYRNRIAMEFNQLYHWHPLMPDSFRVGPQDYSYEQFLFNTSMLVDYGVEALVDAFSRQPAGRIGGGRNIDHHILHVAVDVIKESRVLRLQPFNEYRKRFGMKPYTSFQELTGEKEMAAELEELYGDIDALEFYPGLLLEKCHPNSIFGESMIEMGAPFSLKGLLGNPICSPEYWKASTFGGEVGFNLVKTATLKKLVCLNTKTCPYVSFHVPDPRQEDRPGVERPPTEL
Source text: For the measurement of the inhibitory activity of the compounds obtained in the Examples against COX-1 and COX-2, a COX Inhibitor Screening Assay Kit manufactured by Cayman Chemical Company (Catalog Nos. 560101 and 560121) was used.
Before starting the measurement, a reaction buffer, heme, arachidonic acid, SnCl2, EIA buffer, a washing buffer, prostaglandin (PG)-screening EIA standard solution, PG-screening acetylcholinesterase (AchE), a tracer […], and PG-screening EIA antiserum were provided.
A reaction solution containing a compound of the Examples (50 μM) and COX-1, or a reaction solution containing a compound of the Examples (300 μM) and COX-2 was allowed to stand at 37° C. for 10 minutes, then 10 μl of arachidonic acid was added thereto, and the resultant mixture was allowed to stand at 37° C. for 2 minutes. After the reaction, 50 μl of 1 N hydrochloric acid was added to the reaction mixture to stop the reaction, and 100 μl of a SnCl2 solution was added thereto. The resultant mixture was allowed to stand at room temperature for 5 minutes.
50 μl of antiserum (rabbit anti-PGF2α antibody) was added to each well of a 96-well plate coated with mouse anti-rabbit IgG. Then, 50 μl of a solution prepared by diluting the reaction solution for PGF2α production to 2000-folds, and 50 μl of an AchE tracer were added sequentially to the wells, and the plate was kept at room temperature for 18 hours. Each well washed 5 times with the washing buffer to remove excessive AchE tracer, and then 200 μl of Ellman reagent was added to each well. The plate was kept in the dark room for 60 minutes, and then, absorbance at 405 nm was measured.
A standard curve was produced using a PG-screening EIA standard solution, and the amount of PGF2α production was determined from the absorbance obtained as described above. The COX-1 inhibition rate at 50 μM of the compound of the Examples, and the COX-2 inhibition rate at 300 μM of the compound of the Examples were calculated.

Structure (SMILES)	pIC50 [1]	COX-1 inhibitory action at 50 μM (% inhibition) (Cyclooxygenase-1 (COX-1))
COc1ccc(-c2cc(C(=O)N3CCOCC3)nn2-c2ccc(C)nc2)nc1 [Example 1, 4-[5-(5-Methoxy-2-pyridyl)-1-(6-methyl-3-pyridyl)-1H-pyrazole-3-carbonyl]morpholine]	6.68	−13.3 % inhibition
Cc1ccc(-n2nc(C(=O)N3CCC(F)(F)CC3)cc2-c2cnc(C)cn2)cn1 [Example 2, 1-[5-(5-Methyl-2-pyrazinyl)-1-(6-methyl-3-pyridyl)-1H-pyrazole-3-carbonyl]-4,4-difluoropiperidine]	6.89	−1.2 % inhibition
COC1CCN(C(=O)c2cc(-c3cnc(C)cn3)n(-c3ccc(C)nc3)n2)CC1 [Example 3, 1-[5-(5-Methyl-2-pyrazinyl)-1-(6-methyl-3-pyridyl)-1H-pyrazole-3-carbonyl]-4-methoxypiperidine]	6.66	−21.2 % inhibition
COc1ccc(-c2cc(C(=O)N3CCC(OC)CC3)nn2-c2ccc(C)nc2)nc1 [Example 4, 1-[5-(5-Methoxy-2-pyridyl)-1-(6-methyl-3-pyridyl)-1H-pyrazole-3-carbonyl]-4-methoxypiperidine]	6.68	−13.3 % inhibition
COc1ccc(-n2nc(C(=O)N3CCCCN3)cc2-c2ccccn2)nn1 [Example 5, 1-[1-(6-Methoxy-3-pyridazinyl)-5-(2-pyridyl)-1H-pyrazole-3-carbonyl]hexahydropyridazine]	6.68	−35.9 % inhibition
COc1ccc(-n2nc(C(=O)N3CCN(C)C(=O)C3)cc2-n2cccc2)cn1 [Example 10, 1-[1-(6-Methoxy-3-pyridyl)-5-(1H-pyrrol-1-yl)-1H-pyrazole-3-carbonyl]-4-methyl-3-oxopiperazine]	6.72	54.1 % inhibition
COc1ccc(-n2nc(C(=O)N3CCN(C)CC3)cc2-c2ccc[nH]2)nn1 [Example 12, 1-[1-(6-Methoxy-3-pyridazinyl)-5-(1H-pyrrol-2-yl)-1H-pyrazole-3-carbonyl]-4-methylpiperazine]	6.49	25.9 % inhibition
COc1ccc(-n2nc(C(=O)N3CCC(OC)CC3)cc2-c2ccc[nH]2)nn1 [Example 14, 1-[1-(6-Methoxy-3-pyridazinyl)-5-(1H-pyrrol-2-yl)-1H-pyrazole-3-carbonyl]-4-methoxypiperidine]	6.92	39.3 % inhibition
Cc1ccc(-n2nc(C(=O)N3CCOCC3)cc2-c2ccn(C)c2)cn1 [Example 16, 4-[1-(6-Methyl-3-pyridyl)-5-(1-methyl-1H-pyrrol-3-yl)-1H-pyrazole-3-carbonyl]morpholine]	6.92	−5.2 % inhibition
Cc1ccc(-c2cc(C(=O)N3CCC(F)(F)CC3)nn2-c2ccc(C)nn2)nc1 [Example 18, 1-[1-(6-Methyl-3-pyridazinyl)-5-(5-methyl-2-pyridyl)-1H-pyrazole-3-carbonyl]-4,4-difluoropiperidine]	6.70	−3.0 % inhibition
COc1ccc(-n2nc(C(=O)N3CCC(OC)CC3)cc2-c2ccccn2)cn1 [Example 20, 1-[1-(6-Methoxy-3-pyridyl)-5-(2-pyridyl)-1H-pyrazole-3-carbonyl]-4-methoxypiperidine]	6.92	−17.0 % inhibition
COc1ccc(-n2nc(C(=O)N3CCCC3C)cc2-c2ccccn2)nn1 (stereo not shown) [Example 27, 1-[1-(6-Methoxy-3-pyridazinyl)-5-(2-pyridyl)-1H-pyrazole-3-carbonyl]-2-methylpyrrolidine]	7.04	−10.2 % inhibition
COc1ccc(-n2nc(C(=O)N3CCC[C@H]3CF)cc2-c2ccccn2)nn1 [Example 31, (2S)-1-[1-(6-Methoxy-3-pyridazinyl)-5-(2-pyridyl)-1H-pyrazole-3-carbonyl]-2-fluoromethylpyrrolidine]	6.74	−10.5 % inhibition
Cc1ccc(-n2nc(C(=O)N3CCC(F)CC3)cc2-c2cnc(C)cn2)cn1 [Example 32, 1-[5-(5-Methyl-2-pyrazinyl)-1-(6-methyl-3-pyridyl)-1H-pyrazole-3-carbonyl]-4-fluoropiperidine]	6.68	−8.4 % inhibition
COc1ccc(-n2nc(C(=O)N3CCOCC3)cc2-c2cc[nH]n2)cn1 [Example 33, 4-[1-(6-Methoxy-3-pyridyl)-5-(1H-pyrazol-3-yl)-1H-pyrazole-3-carbonyl]morpholine]	7.01	−9.5 % inhibition
COc1ccc(-n2nc(C(=O)N3CCC(OC)CC3)cc2-c2cscn2)cn1 [Example 128, 1-[1-(6-Methoxy-3-pyridyl)-5-(thiazol-4-yl)-1H-pyrazole-3-carbonyl]-4-methoxypiperidine]	7.00	–
COc1ccc(-n2nc(C(=O)N3CCCCC3C(N)=O)cc2-c2cscn2)cn1 (stereo not shown) [Example 129, 1-[1-(6-Methoxy-3-pyridyl)-5-(thiazol-4-yl)-1H-pyrazole-3-carbonyl]-2-carbamoylpiperidine]	6.59	–
COc1ccc(-n2nc(C(=O)N3CCN(C)CC3)cc2-c2cscn2)nn1 [Example 131, 1-[1-(6-Methoxy-3-pyridazinyl)-5-(thiazol-4-yl)-1H-pyrazole-3-carbonyl]-4-methylpiperazine]	6.49	–
COc1ccc(-n2nc(C(=O)N3CCC(OC)CC3)cc2-c2cscn2)nn1 [Example 132, 1-[1-(6-Methoxy-3-pyridazinyl)-5-(thiazol-4-yl)-1H-pyrazole-3-carbonyl]-4-methoxypiperidine]	6.72	–
COc1ccc(-n2nc(C(=O)N3CCC(F)(F)CC3)cc2-c2cscn2)nn1 [Example 133, 1-[1-(6-Methoxy-3-pyridazinyl)-5-(thiazol-4-yl)-1H-pyrazole-3-carbonyl]-4,4-difluoropiperidine]	7.10	–
COc1ccc(-n2nc(C(=O)N3CCCCN3)cc2-c2cnn(C)c2)cn1 [Example 134, 1-[1-(6-Methoxy-3-pyridyl)-5 (1-methyl-1H-pyrazol-4-yl)-1H-pyrazole-3-carbonyl]hexahydropyridazine]	7.40	–
COc1ccc(-n2nc(C(=O)N3CCCOCC3)cc2-c2cnn(C)c2)cn1 [Example 136, 4-[1-(6-Methoxy-3-pyridyl)-5-(1-methyl-1H-pyrazol-4-yl)-1H-pyrazole-3-carbonyl]-1,4-oxazepane]	6.44	–
COc1ccc(-n2nc(C(=O)N3CCCOCC3)cc2-c2cscn2)nn1 [Example 137, 4-[1-(6-Methoxy-3-pyridazinyl)-5-(thiazol-4-yl)-1H-pyrazole-3-carbonyl]-1,4-oxazepane]	7.10	–
COc1ccc(-n2nc(C(=O)N3CCCCN3)cc2-c2cscn2)cn1 [Example 138, 1-[1-(6-Methoxy-3-pyridyl)-5-(thiazol-4-yl)-1H-pyrazole-3-carbonyl]hexahydropyridazine]	7.39	–
COc1ccc(-n2nc(C(=O)N3CCCOCC3)cc2-c2cscn2)cn1 [Example 139, 4-[1-(6-Methoxy-3-pyridyl)-5-(thiazol-4-yl)-1H-pyrazole-3-carbonyl]-1,4-oxazepane]	7.39	–
